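Where inhibition never reached the appropriate level, the endpoint shown equals the highest concentration tested. Otherwise, values were interpolated linearly from a five-concentration, 48-hour dose response in 96-well plates. Abbreviation: GI50, concentration required for 50% inhibition of growth. TGI is the concentration that stops growth completely.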
Columns and labels:
Assay in all cases: NCI anticancer screen, dose series, 48 h
HCC-2998 colon = system: HCC-2998 colon
SK-MEL-2 melanoma = system: SK-MEL-2 melanoma
U251 CNS = system: U251 CNS
COLO 205 colon = system: COLO 205 colon
NCI/ADR-RES ovarian = system: NCI/ADR-RES ovarian
UO-31 renal = system: UO-31 renal
LOX IMVI melanoma = system: LOX IMVI melanoma
MCF7 breast = system: MCF7 breast
SF-539 CNS = system: SF-539 CNS
SW-620 colon = system: SW-620 colon
HL-60(TB) leukemia = system: HL-60(TB) leukemia
SNB-75 CNS = system: SNB-75 CNS
PC-3 prostate = system: PC-3 prostate
OVCAR-4 ovarian = system: OVCAR-4 ovarian
OVCAR-5 ovarian = system: OVCAR-5 ovarian
CAKI-1 renal = system: CAKI-1 renal
UACC-257 melanoma = system: UACC-257 melanoma
T-47D breast = system: T-47D breast
SK-MEL-5 melanoma = system: SK-MEL-5 melanoma
SK-MEL-28 melanoma = system: SK-MEL-28 melanoma
HS 578T breast = system: HS 578T breast
MDA-MB-435 = system: MDA-MB-435
IGROV1 ovarian = system: IGROV1 ovarian
HOP-62 NSCLC = system: HOP-62 NSCLC
CCRF-CEM leukemia = system: CCRF-CEM leukemia
EKVX NSCLC = system: EKVX NSCLC
786-0 renal = system: 786-0 renal
SN12C renal = system: SN12C renal
SR leukemia = system: SR leukemia
NCI-H226 lung = system: NCI-H226 lung
HT29 colon = system: HT29 colon
DU-145 prostate = system: DU-145 prostate
M14 melanoma = system: M14 melanoma
SF-268 CNS = system: SF-268 CNS
A549 NSCLC = system: A549 NSCLC
NCI-H460 lung = system: NCI-H460 lung
OVCAR-3 ovarian = system: OVCAR-3 ovarian
SF-295 CNS = system: SF-295 CNS
MDA-MB-231 breast = system: MDA-MB-231 breast
SK-OV-3 ovarian = system: SK-OV-3 ovarian
HCT-15 colon = system: HCT-15 colon
ACHN renal = system: ACHN renal
NCI-H23 lung = system: NCI-H23 lung
KM12 colon = system: KM12 colon
MALME-3M melanoma = system: MALME-3M melanoma
MOLT-4 leukemia = system: MOLT-4 leukemia
SNB-19 CNS = system: SNB-19 CNS
HOP-92 NSCLC = system: HOP-92 NSCLC
TK-10 renal = system: TK-10 renal
HCT-116 colon = system: HCT-116 colon
A498 renal = system: A498 renal
UACC-62 melanoma = system: UACC-62 melanoma
RXF 393 renal = system: RXF 393 renal
NCI-H522 lung = system: NCI-H522 lung
RPMI-8226 leukemia = system: RPMI-8226 leukemia
K-562 leukemia = system: K-562 leukemia
BT-549 breast = system: BT-549 breast
OVCAR-8 ovarian = system: OVCAR-8 ovarian

CN(C)C(=O)c1cc2cnc(Nc3ccc(-c4csc5c(=S)cc(N6CCOCC6)oc45)cc3)nc2n1C1CCCC1
GI50 (HCC-2998 colon): 932 nM
TGI (HCC-2998 colon): > 50 µM
GI50 (SK-MEL-2 melanoma): 971 nM
TGI (SK-MEL-2 melanoma): 2840 nM
GI50 (U251 CNS): 481 nM
TGI (U251 CNS): > 50 µM
GI50 (COLO 205 colon): 214 nM
GI50 (NCI/ADR-RES ovarian): 1020 nM
TGI (NCI/ADR-RES ovarian): > 50 µM
GI50 (UO-31 renal): 227 nM
TGI (UO-31 renal): 1540 nM
GI50 (LOX IMVI melanoma): 355 nM
TGI (LOX IMVI melanoma): 2540 nM
GI50 (MCF7 breast): 235 nM
TGI (MCF7 breast): 2440 nM
GI50 (SF-539 CNS): 517 nM
TGI (SF-539 CNS): 2030 nM
GI50 (SW-620 colon): 604 nM
TGI (SW-620 colon): > 50 µM
GI50 (HL-60(TB) leukemia): 264 nM
TGI (HL-60(TB) leukemia): 1970 nM
GI50 (SNB-75 CNS): 314 nM
TGI (SNB-75 CNS): 2040 nM
GI50 (PC-3 prostate): 312 nM
TGI (PC-3 prostate): > 10.8 µM
GI50 (OVCAR-4 ovarian): 1030 nM
TGI (OVCAR-4 ovarian): > 50 µM
GI50 (OVCAR-5 ovarian): 485 nM
TGI (OVCAR-5 ovarian): > 50 µM
GI50 (CAKI-1 renal): 368 nM
TGI (CAKI-1 renal): > 13.3 µM
GI50 (UACC-257 melanoma): 1240 nM
TGI (UACC-257 melanoma): > 14.7 µM
GI50 (T-47D breast): 198 nM
TGI (T-47D breast): > 50 µM
GI50 (SK-MEL-5 melanoma): 715 nM
TGI (SK-MEL-5 melanoma): 2430 nM
GI50 (SK-MEL-28 melanoma): 752 nM
TGI (SK-MEL-28 melanoma): > 50 µM
GI50 (HS 578T breast): 469 nM
TGI (HS 578T breast): 3.98 µM
GI50 (MDA-MB-435): 687 nM
TGI (MDA-MB-435): > 50 µM
GI50 (IGROV1 ovarian): 509 nM
TGI (IGROV1 ovarian): > 50 µM
GI50 (HOP-62 NSCLC): 694 nM
TGI (HOP-62 NSCLC): > 50 µM
GI50 (CCRF-CEM leukemia): 274 nM
TGI (CCRF-CEM leukemia): > 9.84 µM
GI50 (EKVX NSCLC): 792 nM
TGI (EKVX NSCLC): > 13.7 µM
GI50 (786-0 renal): 630 nM
TGI (786-0 renal): > 50 µM
GI50 (SN12C renal): 330 nM
TGI (SN12C renal): > 50 µM
GI50 (SR leukemia): 145 nM
TGI (SR leukemia): > 50 µM
GI50 (NCI-H226 lung): 405 nM
TGI (NCI-H226 lung): > 11.9 µM
GI50 (HT29 colon): 515 nM
TGI (HT29 colon): > 50 µM
GI50 (DU-145 prostate): 774 nM
TGI (DU-145 prostate): > 50 µM
GI50 (M14 melanoma): 838 nM
TGI (M14 melanoma): > 50 µM
GI50 (SF-268 CNS): 693 nM
TGI (SF-268 CNS): > 50 µM
GI50 (A549 NSCLC): 823 nM
TGI (A549 NSCLC): 5.15 µM
GI50 (NCI-H460 lung): 585 nM
TGI (NCI-H460 lung): > 50 µM
GI50 (OVCAR-3 ovarian): 910 nM
TGI (OVCAR-3 ovarian): > 50 µM
GI50 (SF-295 CNS): 672 nM
TGI (SF-295 CNS): > 13.5 µM
GI50 (MDA-MB-231 breast): 249 nM
TGI (MDA-MB-231 breast): > 50 µM
GI50 (SK-OV-3 ovarian): 2280 nM
TGI (SK-OV-3 ovarian): > 50 µM
GI50 (HCT-15 colon): 344 nM
TGI (HCT-15 colon): > 50 µM
GI50 (ACHN renal): 377 nM
TGI (ACHN renal): > 50 µM
GI50 (NCI-H23 lung): 699 nM
TGI (NCI-H23 lung): > 19.5 µM
GI50 (KM12 colon): 180 nM
TGI (KM12 colon): > 50 µM
GI50 (MALME-3M melanoma): 778 nM
TGI (MALME-3M melanoma): 31.1 µM
GI50 (MOLT-4 leukemia): 244 nM
TGI (MOLT-4 leukemia): > 50 µM
GI50 (SNB-19 CNS): 498 nM
TGI (SNB-19 CNS): > 34.5 µM
GI50 (HOP-92 NSCLC): 115 nM
GI50 (TK-10 renal): 987 nM
TGI (TK-10 renal): > 50 µM
GI50 (HCT-116 colon): 242 nM
TGI (HCT-116 colon): > 50 µM
GI50 (A498 renal): 103 nM
TGI (A498 renal): 1120 nM
GI50 (UACC-62 melanoma): 234 nM
TGI (UACC-62 melanoma): 1720 nM
GI50 (RXF 393 renal): 139 nM
TGI (RXF 393 renal): 495 nM
GI50 (NCI-H522 lung): 1300 nM
TGI (NCI-H522 lung): > 50 µM
GI50 (RPMI-8226 leukemia): 252 nM
TGI (RPMI-8226 leukemia): 1450 nM
GI50 (K-562 leukemia): 939 nM
TGI (K-562 leukemia): > 50 µM
GI50 (BT-549 breast): 698 nM
TGI (BT-549 breast): 3.83 µM
GI50 (OVCAR-8 ovarian): 744 nM
TGI (OVCAR-8 ovarian): > 50 µM

From PubChem BioAssay (NCI)
